test system: FKBP-AGT fusion protein (SNAP-FKBP); experiment: Reactivity with FKBP-AGT fusion protein (protein trimer formation, SDS-PAGE/coomassie); type: biochemical; details: in vitro, 4 h incubation at rt, SDS-PAGE with coomassie staining
Description: Determination of the Reactivity of Compound (FIG. 89), (FIG. 90), (FIG. 91), (FIG. 92) and (FIG. 96) with FKBP-AGT Fusion Protein 1 μL of a 591 μM solution of FKBP protein fused to a variant of AGT available from Covalys as […] and 1 μL of a 100 μM solution of compound (FIG. 89), (FIG. 90), (FIG. 91), (FIG. 92) or (FIG. 96) are added to 8 μL of a solution of 50 mM Tris-HCl pH 7.5; 100 mM NaCl; 0.1% Tween20TM; 1 mM DTT. Following a 4 h incubation at rt, 15 μL of a solution of 100 mM Tris-HCl pH 6.8; 2% SDS; 35% glycerol; 10 mM EDTA; 20 mM DTT is added. Then the mixture is boiled for 5 min at 95° C. After cooling to rt, 25 μL of this solution is loaded on a 4-20% linear gradient SDS-PAGE gel. After electrophoresis, the proteins are coomassie stained in gel to visualize protein trimer.

Chain of FKBP-AGT fusion protein (SNAP-FKBP) (P16455 1-182 C62A/K125A/A127T/R128A/G131K/G132T/M134L/R135S/C150S/N157G/S159E limits assumed): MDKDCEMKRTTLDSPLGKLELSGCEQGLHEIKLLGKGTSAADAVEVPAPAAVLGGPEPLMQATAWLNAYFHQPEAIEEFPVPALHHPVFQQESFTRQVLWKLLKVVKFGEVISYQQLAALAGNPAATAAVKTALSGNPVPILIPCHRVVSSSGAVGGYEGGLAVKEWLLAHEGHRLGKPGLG

Row | Substance | structural ability to trigger the formation of a protein trimer
1 | N-Tris-{[2-(BG-PEG12-NH)-carbonylethoxy]methyl}-methyl nile red-oxyacetamide [FIG. 91] | confirmed
2 | N-Tris-{[2-(BG-PEG12-NH)-carbonylethoxy]methyl}methyl 7-(diethylamino)coumarin-3-carboxamide [FIG. 89] | confirmed
3 | N-Tris-{[2-(BG-PEG12-NH)-carbonylethoxy]methyl}-methyl ATTO-495-carboxamide [FIG. 90] | confirmed
4 | N-Tris-{[2-(BG-PEG12-NH)-carbonylethoxy]methyl}-methyl 5-maleimidopentanecarboxamide [FIG. 92] | confirmed
5 | N-Tris-{[2-(BG-PEG12-NH)-carbonylethoxy]methyl}-methyl-3-[2-(2-maleimidoethyl)disulfanyl]propanoylamide [FIG. 96] | confirmed

From US20140023592A1, “SELF COUPLING RECOMBINANT ANTIBODY FUSION PROTEINS” (RWTH Aachen, priority 2007, published 2014)
